Columns and labels:
[1] = molecular target: T1, Gaussia luciferase (GLase) (Gaussia princeps (in: crustaceans), UniProt Q9BLZ2); assay: luminescence inhibition with coelenterazine; type: biochemical; details: coelenterazine 1.2 × 10^−4 M (so in the source); 1 μg each in 200 μL), 30 mM Tris-HCl, 10 mM EDTA, 1 min preincubation; no inhibitor = 100
T1 construct: C-terminal His tag, signal peptide removed by secretion; stably expressed in CHO-K1/dhfr- cells (pcDNA3-hGL-H), Ni column
T1 sequence (Q9BLZ2 18-185): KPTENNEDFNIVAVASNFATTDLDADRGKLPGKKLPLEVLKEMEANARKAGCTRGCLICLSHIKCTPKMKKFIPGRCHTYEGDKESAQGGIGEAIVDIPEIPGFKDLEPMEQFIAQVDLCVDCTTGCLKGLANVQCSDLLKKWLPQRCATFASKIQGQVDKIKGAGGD
From the text: luminescence inhibition with coelenterazine on Gaussia luciferase (GLase)

[2] = molecular target: T2, native Oplophorus luciferase (OpLase) (Oplophorus gracilirostris, UniProt Q9GV45); assay: luminescence inhibition with coelenterazine; type: biochemical; details: coelenterazine 1.2 × 10^−4 M (so in the source); 1 μg each in 200 μL), 30 mM Tris-HCl, 10 mM EDTA, 1 min preincubation; no inhibitor = 100
T2 construct: 19 kDa and 35 kDa subunits, 106 kDa; with Oplophorus-luciferin 2-monooxygenase non-catalytic subunit
From the text: luminescence inhibition with coelenterazine on native Oplophorus luciferase (OpLase)

T2 sequence (Q9GV45 28-196): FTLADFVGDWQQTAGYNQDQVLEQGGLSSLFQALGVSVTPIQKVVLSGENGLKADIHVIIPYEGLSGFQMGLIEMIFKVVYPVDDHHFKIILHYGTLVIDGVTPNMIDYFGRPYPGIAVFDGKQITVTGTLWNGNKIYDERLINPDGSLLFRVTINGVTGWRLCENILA
T2 sequence (Q9GV46 40-359 partner): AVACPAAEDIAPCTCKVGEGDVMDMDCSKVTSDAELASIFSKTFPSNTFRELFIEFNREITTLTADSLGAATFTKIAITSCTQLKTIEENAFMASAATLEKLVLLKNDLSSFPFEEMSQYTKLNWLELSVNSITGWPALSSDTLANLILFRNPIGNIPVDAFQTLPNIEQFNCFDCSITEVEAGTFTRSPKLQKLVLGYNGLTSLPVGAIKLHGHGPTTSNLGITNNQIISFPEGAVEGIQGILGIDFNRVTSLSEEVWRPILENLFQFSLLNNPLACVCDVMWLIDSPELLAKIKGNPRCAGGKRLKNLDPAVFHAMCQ

| SMILES | Relative luminescence activity (Imax, %) / GLase ^a [1] [%] | Relative luminescence activity (Imax, %) / OpLase ^a [2] [%] | Relative luminescence activity (Imax, %) / QL-nanoKAZ ^a [1] [%] |
| --- | --- | --- | --- |
| O=C1c2cc(-c3ccc(O)cc3)cc(Cc3ccccc3)c2C[C@@]1(CO)Cc1ccc(O)cc1 [(R)-HM-daCTZ] | 23.5 | 33.5 | – |
| O=C1c2cc(-c3ccc(O)cc3)cc(Cc3ccccc3)c2C[C@H]1Cc1ccc(O)cc1 [(R)-daCTZ] | 0.5 | 5.1 | – |
| O=C1c2cc(-c3ccc(O)cc3)cc(Cc3ccccc3)c2C[C@]1(CO)Cc1ccc(O)cc1 [(S)-HM-daCTZ] | 5.3 | 19.7 | – |
| O=C1c2cc(-c3ccc(O)cc3)cc(Cc3ccccc3)c2C[C@@H]1Cc1ccc(O)cc1 [(S)-daCTZ] | – | 2.1 | 0.4 |

Reference: paper PMC9491549, “Reverse mutants of the catalytic 19 kDa mutant protein (nanoKAZ/nanoLuc) from Oplophorus luciferase with coelenterazine as preferred substrate” (PLoS ONE, 2022)
